Test results as given in patent US9999619B2, “Piperidin-4-yl azetidine derivatives as JAK1 inhibitors” (Incyte Corporation, priority 2010, dated 2018).

How the values were obtained:
Assay type in all cases: biochemical
Jak2 (a.a. 828-1132) = Jak2 (a.a. 828-1132) (Homo sapiens (Human), UniProt O60674); test: In vitro JAK kinase assay (HTRF, phosphorylation of a biotinylated peptide), JAK2; conditions: measured at 1 mM ATP
Summary of the method: (§1)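 N-terminal His-tagged catalytic domains, baculovirus-expressed in insect cells, phosphorylated a biotinylated peptide for 1 hr at room temperature. EDTA stop was followed by SA-APC and Eu-Py20 antibody for 40 minutes, with phosphopeptide read by HTRF.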

[1] = biological target: human JAK1 (a.a. 837-1142); test: In vitro JAK kinase assay (HTRF, phosphorylation of a biotinylated peptide), JAK1; conditions: ratio of JAK2 IC50 to JAK1 IC50, measured at 1 mM ATP
Summary of the method: as §1

[2] = biological target: human JAK1 (a.a. 837-1142) (Homo sapiens, UniProt P23458); test: as above; conditions: measured at 1 mM ATP
Summary of the method: as §1

Sequence of Jak2 (a.a. 828-1132) (O60674 828-1132): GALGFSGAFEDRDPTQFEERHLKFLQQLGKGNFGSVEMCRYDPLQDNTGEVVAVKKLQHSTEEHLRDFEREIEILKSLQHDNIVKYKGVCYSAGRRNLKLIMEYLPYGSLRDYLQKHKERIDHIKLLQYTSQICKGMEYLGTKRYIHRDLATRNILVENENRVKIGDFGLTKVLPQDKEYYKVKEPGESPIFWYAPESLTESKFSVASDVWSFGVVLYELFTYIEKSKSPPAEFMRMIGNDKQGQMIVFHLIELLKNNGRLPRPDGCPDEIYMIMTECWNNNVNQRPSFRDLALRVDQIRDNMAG

IC50 (Jak2 (a.a. 828-1132)) | IC50 Ratio JAK2/JAK1 [1] | IC50 [2] | SMILES
≤ 10 nM | 4.1 | ≤ 5 nM | N#CCC1(n2ccc(-c3ncnc4[nH]ccc34)c2)CN(C2CCN(C(=O)c3c(F)cccc3F)CC2)C1 [Example 279, {1-[1-(2,6-difluorobenzoyl)piperidin-4-yl]-3-[3-(7H-pyrrolo[2,3-d]pyrimidin-4-yl)-1H-pyrrol-1-yl]azetidin-3-yl}acetonitrile]
≤ 10 nM | 0.5 | ≤ 5 nM | N#CCC1(n2cc(-c3ncnc4[nH]ccc34)cn2)CN(C2CCN(C(=O)Nc3nc4ccccc4s3)CC2)C1 [Example 193, N-1,3-benzothiazol-2-yl-4-{3-(cyanomethyl)-3-[4-(7H-pyrrolo[2,3-d]pyrimidin-4-yl)-1H-pyrazol-1-yl]azetidin-1-yl}piperidine-1-carboxamide]
10 to 50 nM | 12.0 | ≤ 5 nM | COc1ccc(C(=O)N2CCC(N3CC(CC#N)(n4cc(-c5ncnc6[nH]ccc56)cn4)C3)CC2)cc1F [Example 5, {1-[1-(3-fluoro-4-methoxybenzoyl)piperidin-4-yl]-3-[4-(7H-pyrrolo[2,3-d]pyrimidin-4-yl)-1H-pyrazol-1-yl]azetidin-3-yl}acetonitrile]
10 to 50 nM | 5.1 | 5 to 20 nM | N#CCC1(n2cc(-c3ccnc4[nH]ccc34)cn2)CN(C2CCN(C(=O)c3ccc(C#N)cc3F)CC2)C1 [Example 295, 4-[(4-{3-(cyanomethyl)-3-[4-(1H-pyrrolo[2,3-b]pyridin-4-yl)-1H-pyrazol-1-yl]azetidin-1-yl}piperidin-1-yl)carbonyl]-3-fluorobenzonitrile]
10 to 50 nM | 6.7 | ≤ 5 nM | N#CCC1(n2cc(-c3ncnc4[nH]ccc34)cn2)CN(C2CCN(C(=O)c3cc(F)cc(C(F)(F)F)c3)CC2)C1 [Example 23, {1-{1-[3-fluoro-5-(trifluoromethyl)benzoyl]piperidin-4-yl}-3-[4-(7H-pyrrolo[2,3-d]pyrimidin-4-yl)-1H-pyrazol-1-yl]azetidin-3-yl}acetonitrile]
≤ 10 nM | 2.6 | ≤ 5 nM | N#CCC1(n2cc(-c3ncnc4[nH]ccc34)cn2)CN(C2CCN(C(=O)c3ccc4ncccc4c3)CC2)C1 [Example 89, {3-[4-(7H-pyrrolo[2,3-d]pyrimidin-4-yl)-1H-pyrazol-1-yl]-1-[1-(quinolin-6-ylcarbonyl)piperidin-4-yl]azetidin-3-yl}acetonitrile]
50 to 100 nM | 8.2 | 5 to 20 nM | N#CCC1(n2cc(-c3ncnc4[nH]ccc34)cn2)CN(C2CCN(C(=O)Cc3c(Cl)cccc3Cl)CC2)C1 [Example 112, {1-{1-[(2,6-dichlorophenyl)acetyl]piperidin-4-yl}-3-[4-(7H-pyrrolo[2,3-d]pyrimidin-4-yl)-1H-pyrazol-1-yl]azetidin-3-yl}acetonitrile]
10 to 50 nM | 5.9 | 5 to 20 nM | N#CCC1(n2cc(-c3ncnc4[nH]ccc34)cn2)CN(C2CCN(Cc3cccc(C#N)c3)CC2)C1 [Example 223, 3-[(4-{3-(cyanomethyl)-3-[4-(7H-pyrrolo[2,3-d]pyrimidin-4-yl)-1H-pyrazol-1-yl]azetidin-1-yl}piperidin-1-yl)methyl]benzonitrile]
10 to 50 nM | 3.6 | 5 to 20 nM | N#CCC1(n2cc(-c3ncnc4[nH]ccc34)cn2)CN(C2CCN(C(=O)Nc3ncccc3C(F)(F)F)CC2)C1 [Example 201, 4-{3-(cyanomethyl)-3-[4-(7H-pyrrolo[2,3-d]pyrimidin-4-yl)-1H-pyrazol-1-yl]azetidin-1-yl}-N-[3-(trifluoromethyl)pyridin-2-yl]piperidine-1-carboxamide]
≤ 10 nM | 8.4 | ≤ 5 nM | N#CCC1(n2cc(-c3ncnc4[nH]ccc34)cn2)CN(C2CCN(C(=O)c3ccc(-c4ccccc4C#N)c(F)c3)CC2)C1 [Example 124, 4′-[(4-{3-(cyanomethyl)-3-[4-(7H-pyrrolo[2,3-d]pyrimidin-4-yl)-1H-pyrazol-1-yl]azetidin-1-yl}piperidin-1-yl)carbonyl]-2′-fluorobiphenyl-2-carbonitrile]
10 to 50 nM | 14.0 | ≤ 5 nM | N#CCC1(n2cc(-c3ncnc4[nH]ccc34)cn2)CN(C2CCN(C(=O)c3ccc(-c4ccc(C#N)c(F)c4)c(F)c3)CC2)C1 [Example 119, 4′-[(4-{3-(cyanomethyl)-3-[4-(7H-pyrrolo[2,3-d]pyrimidin-4-yl)-1H-pyrazol-1-yl]azetidin-1-yl}piperidin-1-yl)carbonyl]-2′,3-difluorobiphenyl-4-carbonitrile]
≤ 10 nM | 8.5 | ≤ 5 nM | N#CCC1(n2cc(-c3ncnc4[nH]ccc34)cn2)CN(C2CCN(C(=O)c3cc(F)cc(Cl)c3)CC2)C1 [Example 28, {1-[1-(3-chloro-5-fluorobenzoyl)piperidin-4-yl]-3-[4-(7H-pyrrolo[2,3-d]pyrimidin-4-yl)-1H-pyrazol-1-yl]azetidin-3-yl}acetonitrile]
10 to 50 nM | 6.7 | ≤ 5 nM | Cc1ccc(NC(=O)N2CCC(N3CC(CC#N)(n4cc(-c5ncnc6[nH]ccc56)cn4)C3)CC2)c(F)n1 [Example 200, 4-{3-(cyanomethyl)-3-[4-(7H-pyrrolo[2,3-d]pyrimidin-4-yl)-1H-pyrazol-1-yl]azetidin-1-yl}-N-(2-fluoro-6-methylpyridin-3-yl)piperidine-1-carboxamide]
10 to 50 nM | 3.1 | ≤ 5 nM | N#CCC1(n2cc(-c3ncnc4[nH]ccc34)cn2)CN(C2CCN(C(=O)c3c(F)cccc3C(F)(F)F)CC2)C1 [Example 45, {1-{1-[2-fluoro-6-(trifluoromethyl)benzoyl]piperidin-4-yl}-3-[4-(7H-pyrrolo[2,3-d]pyrimidin-4-yl)-1H-pyrazol-1-yl]azetidin-3-yl}acetonitrile]

Further lines, the compound ahead of its results:

SMILES | IC50 (Jak2 (a.a. 828-1132)) | IC50 Ratio JAK2/JAK1 [1] | IC50 [2]
N#CCC1(n2cc(-c3ccnc4[nH]ccc34)cn2)CN(C2CCN(C(=O)Nc3ccc(C#N)cc3Cl)CC2)C1 [Example 313, N-(2-chloro-4-cyanophenyl)-4-{3-(cyanomethyl)-3-[4-(1H-pyrrolo[2,3-b]pyridin-4-yl)-1H-pyrazol-1-yl]azetidin-1-yl}piperidine-1-carboxamide] | 10 to 50 nM | 14.3 | ≤ 5 nM
CS(=O)(=O)N1CCC(N2CC(CC#N)(n3cc(-c4ccnc5[nH]ccc45)cn3)C2)CC1 [Example 351, {1-[1-(Methylsulfonyl)piperidin-4-yl]-3-[4-(1H-pyrrolo[2,3-b]pyridin-4-yl)-1H-pyrazol-1-yl]azetidin-3-yl}acetonitrile] | 10 to 50 nM | 3.8 | ≤ 5 nM
N#CCC1(n2cc(-c3ncnc4[nH]ccc34)cn2)CN(C2CCN(Cc3ccnc(C(F)(F)F)c3F)CC2)C1 [Example 231, {1-(1-{[3-fluoro-2-(trifluoromethyl)pyridin-4-yl]methyl}piperidin-4-yl)-3-[4-(7H-pyrrolo[2,3-d]pyrimidin-4-yl)-1H-pyrazol-1-yl]azetidin-3-yl}acetonitrile] | 50 to 100 nM | 5.1 | 5 to 20 nM
N#CCC1(n2ccc(-c3ncnc4[nH]ccc34)c2)CN(C2CCN(C(=O)c3nc(C(F)(F)F)cs3)CC2)C1 [Example 346, [3-[3-(7H-Pyrrolo[2,3-d]pyrimidin-4-yl)-1H-pyrrol-1-yl]-1-(1-{[4-(trifluoromethyl)-1,3-thiazol-2-yl]carbonyl}piperidin-4-yl)azetidin-3-yl]acetonitrile] | 10 to 50 nM | 5.9 | ≤ 5 nM
CS(=O)(=O)N1CCC(N2CC(CC#N)(n3cc(-c4c(C#N)cnc5[nH]ccc45)cn3)C2)CC1 [Example 357, 4-(1-{3-(Cyanomethyl)-1-[1-(methylsulfonyl)piperidin-4-yl]azetidin-3-yl}-1H-pyrazol-4-yl)-1H-pyrrolo[2,3-b]pyridine-5-carbonitrile] | 10 to 50 nM | 3.8 | ≤ 5 nM
CC(C)(C)C(=O)Nc1ncccc1CN1CCC(N2CC(CC#N)(n3cc(-c4ncnc5[nH]ccc45)cn3)C2)CC1 [Example 235] | 10 to 50 nM | 2.5 | 5 to 20 nM
N#CCC1(n2cc(-c3c(F)cnc4[nH]ccc34)cn2)CN(C2CCN(C(=O)Nc3cnccc3C(F)(F)F)CC2)C1 [Example 330, 4-{3-(cyanomethyl)-3-[4-(5-fluoro-1H-pyrrolo[2,3-b]pyridin-4-yl)-1H-pyrazol-1-yl]azetidin-1-yl}-N-[4-(trifluoromethyl)pyridin-3-yl]piperidine-1-carboxamide] | 10 to 50 nM | 6.7 | ≤ 5 nM
N#CCC1(n2cc(-c3c(F)cnc4[nH]ccc34)cn2)CN(C2CCN(C(=O)c3c(F)cncc3F)CC2)C1 [Example 321, {1-[1-(3,5-difluoroisonicotinoyl)piperidin-4-yl]-3-[4-(5-fluoro-1H-pyrrolo[2,3-b]pyridin-4-yl)-1H-pyrazol-1-yl]azetidin-3-yl}acetonitrile] | 10 to 50 nM | 3.0 | ≤ 5 nM
N#CCC1(n2cc(-c3ncnc4[nH]ccc34)cn2)CN(C2CCN(C(=O)Nc3ccc(F)c(F)c3)CC2)C1 [Example 176, 4-{3-(cyanomethyl)-3-[4-(7H-pyrrolo[2,3-d]pyrimidin-4-yl)-1H-pyrazol-1-yl]azetidin-1-yl}-N-(3,4-difluorophenyl)piperidine-1-carboxamide] | ≤ 10 nM | 5.1 | ≤ 5 nM
